From patent US9469615B2, “Quinoxalines and AZA-quinoxalines as CRTH2 receptor modulators” (Merck Sharp & Dohme Corp., priority 2010, dated 2016)

Molecular target: T1, hCRTH2 (Homo sapiens, UniProt Q9Y5Y4)
T1 construct: expressed in transfected cells; host or cells: HEK (human embryonic kidney) cells expressing hCRTH2; membrane preparation
T1 sequence (Q9Y5Y4 1-395): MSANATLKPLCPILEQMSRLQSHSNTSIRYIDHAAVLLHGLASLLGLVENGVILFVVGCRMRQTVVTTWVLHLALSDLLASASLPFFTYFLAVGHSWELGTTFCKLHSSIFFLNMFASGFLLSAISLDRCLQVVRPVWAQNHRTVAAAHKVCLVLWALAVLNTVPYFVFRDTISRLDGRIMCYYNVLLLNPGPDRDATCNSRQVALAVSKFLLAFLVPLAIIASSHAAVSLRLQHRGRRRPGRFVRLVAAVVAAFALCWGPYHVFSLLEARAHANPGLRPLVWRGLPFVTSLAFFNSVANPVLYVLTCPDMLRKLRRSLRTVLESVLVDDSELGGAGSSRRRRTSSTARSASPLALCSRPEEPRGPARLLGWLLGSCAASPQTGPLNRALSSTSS
Test: Radioligand binding assay ([3H]PGD2 competition, HEK-hCRTH2 membranes)
Details: [3H]PGD2 binding, rated A-E (Table A)
Summary of the method: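 Competition against 3.0 nM [3H]PGD2 was run for 60 min at room temperature in pH 7.4 Tris-HCl buffer with EDTA, 2 mM MnCl2 and 1% DMSO, using 8-20 μg HEK-hCRTH2 membrane protein. 10 μM PGD2 set non-specific binding; filter-bound counts were read by scintillation.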

Compound | Ki [nM]
C[C@@H](NC(=O)c1ccc2nc(-c3ccccc3)c(CCCCC(=O)O)nc2c1)c1ccccc1 [15A, 5-(3-phenyl-7-{[(1R)-1-phenylethyl]carbamoyl}quinoxalin-2-yl) pentanoic acid] | 2.1 to 20
O=C(O)CCCCc1nc2cc(C(=O)N3CC(c4ccc(F)c(F)c4)C3)ccc2nc1-c1ccccc1 [compound 249, 7-[[3-(3,4-difluorophenyl)-1-azetidinyl]carbonyl]-3-phenyl-2-quinoxalinepentanoic acid] | 0.1 to 2
O=C(O)CCCCc1nc2cc(C(=O)N[C@H](c3ccc(F)cc3)C(F)(F)F)ccc2nc1-c1ccc(F)cc1 [compound 139, 3-(4-fluorophenyl)-7-[[[(1R)-2,2,2-trifluoro-1-(4-fluorophenyl)ethyl]amino]carbonyl]-2-quinoxalinepentanoic acid] | 2.1 to 20
O=C(O)CCCCc1nc2cc(C(=O)N3CCC4(CCc5ccccc54)CC3)ccc2nc1-c1ccccc1 [compound 121, 7-[(2,3-dihydrospiro [1H-indene-1,4′-piperidin]-1′-yl)carbonyl]-3-phenyl-2-quinoxalinepentanoic acid] | 2.1 to 20
C[C@@H](NC(=O)c1ccc2nc(-c3ccc(C(F)(F)F)cc3)c(CCCCC(=O)O)nc2c1)c1ccccn1 [compound 147, 7-[[[1(R)-(2-pyridinyl)ethyl]amino]carbonyl]-3-[4-(trifluoromethyl)phenyl]-2-quinoxalinepentanoic acid] | 2.1 to 20
O=C(O)CCCCc1nc2cc(C(=O)C3CC3)ccc2nc1-c1ccccc1 [6G, 7-(cyclopropylcarbonyl)-3-phenyl-2-quinoxalinepentanoic acid] | 0.1 to 2
O=C(O)CCCCc1nc2cc(C(=O)N3CCN(c4ccccc4)CC3)ccc2nc1-c1ccccc1 [15AN, 5-{3-phenyl-7-[(4-phenylpiperazin-1-yl)carbonyl]quinoxalin-2-yl}pentanoic acid] | 2.1 to 20

Now from value to molecule:

Ki [nM] | Compound
2.1 to 20 | O=C(O)CCCCc1nc2cc(C(=O)NCc3ccncc3)ccc2nc1-c1ccc(C(F)(F)F)cc1 [3AC, 7-[[(4-pyridinylmethyl)-amino]carbonyl]-3-[4-(trifluoromethyl)phenyl]-2-quinoxalinepentanoic acid]
2.1 to 20 | O=C(O)CCCCc1nc2cc(C(=O)NCc3ccc(Cl)cc3)cnc2nc1-c1ccccc1 [14D, 5-{7-[(4-chlorobenzyl)-carbamoyl]-3-phenylpyrido[2,3-b]pyrazin-2-yl} pentanoic acid]
0.1 to 2 | O=C(O)CCCCc1nc2cc(C(=O)NCc3cccc(Cl)c3)ccc2nc1-c1ccc(Cl)cc1 [16F, 3-(4-chlorophenyl)-7-[[[(3-chlorophenyl)methyl]amino]carbonyl]-2-quinoxalinepentanoic acid]
2.1 to 20 | O=C(O)Cc1cccc(CCc2nc3cc(C(=O)NCc4cccc(Cl)c4)ccc3nc2-c2ccc(Cl)cc2)c1 [19i, 3-[2-[3-(4-chlorophenyl)-7-[[[(3-chlorophenyl)methyl]amino]carbonyl]-2-quinoxalinyl]ethyl] benzeneacetic acid]
20.1 to 200 | O=C(O)CCCCc1nc2cc(C(=O)Nc3cccc(F)c3)ccc2nc1-c1cccc(F)c1 [3U, 3-(3-fluorophenyl)-7-[[(3-fluorophenyl)amino]carbonyl]-2-quinoxalinepentanoic acid]
2.1 to 20 | C[C@@H](NC(=O)c1ccc2nc(-c3ccc(C(F)(F)F)cc3)c(CCCCC(=O)O)nc2c1)c1ccccc1 [3X, 7-[[(1-(R)-phenylethyl)amino]carbonyl]-3-[4-(trifluoromethyl)phenyl]-2-quinoxalinepentanoic acid]
2.1 to 20 | N#Cc1ccc(CNC(=O)c2ccc3nc(-c4ccc(Cl)cc4)c(CCc4cccc(CC(=O)O)c4)nc3c2)cc1 [19F, 3-[2-[3-(4-chlorophenyl)-7-[[[(4-cyanophenyl)methyl]amino]carbonyl]-2-quinoxalinyl]ethyl] benzeneacetic acid]
2.1 to 20 | O=C(O)CCCCc1nc2cc(C(=O)N[C@H]3CCCc4cc(Cl)ccc43)ccc2nc1-c1ccc(Cl)cc1 [compound 187, 3-(4-chlorophenyl)-7-[[(6-chloro-1,2,3,4-tetrahydro-1(S)-naphthalenyl)amino]carbonyl]-2-quinoxalinepentanoic acid]

Same assay, conditions: [3H]PGD2 binding, values in text

Ki [nM] | Compound
18.4 | O=C(O)CCCCc1nc2cc(C(=O)N[C@H]3CCS(=O)(=O)c4ccccc43)ccc2nc1-c1ccc(F)cc1 [compound 709, (S)-5-(7-((1,1-dioxidothiochroman-4-yl)carbamoyl)-3-(4-fluorophenyl)quinoxalin-2-yl)pentanoic acid]
259 | Cc1cc2nc(-c3ccccc3)c(CCCCC(=O)O)nc2cc1C(=O)N[C@@H]1CCCc2ccccc21 [compound 526, (R)-5-(6-methyl-3-phenyl-7-((1,2,3,4-tetrahydronaphthalen-1-yl)carbamoyl)quinoxalin-2-yl)pentanoic acid]
0.5 | O=C(O)CCCCc1nc2cc(C(=O)C3CC3)ccc2nc1-c1ccccc1 [6G, 7-(cyclopropylcarbonyl)-3-phenyl-2-quinoxalinepentanoic acid]

Same assay, conditions: [3H]PGD2 competition, Table B

Compound | Ki [nM]
O=C(O)CCCCc1nc2cc(C(=O)N3C[C@H]4CC[C@@H](C3)N4Cc3ccccc3)ccc2nc1-c1ccc(Cl)cc1 [compound 704, 5-(7-((1R,5S)-8-benzyl-3,8-diazabicyclo[3.2.1]octane-3-carbonyl)-3-(4-chlorophenyl)quinoxalin-2-yl)pentanoic acid] | 2.1 to 20
O=C(O)CCCCc1nc2cc(C(=O)N[C@H]3CCS(=O)(=O)c4ccccc43)ccc2nc1-c1ccc(F)cc1 [compound 709, (S)-5-(7-((1,1-dioxidothiochroman-4-yl)carbamoyl)-3-(4-fluorophenyl)quinoxalin-2-yl)pentanoic acid] | 2.1 to 20
Cc1cc2nc(-c3ccccc3)c(CCCCC(=O)O)nc2cc1C(=O)N[C@@H]1CCCc2ccccc21 [compound 526, (R)-5-(6-methyl-3-phenyl-7-((1,2,3,4-tetrahydronaphthalen-1-yl)carbamoyl)quinoxalin-2-yl)pentanoic acid] | 201 to 700
CC1(C)CCC(NC(=O)c2ccc3nc(-c4ccccc4)c(CCCCC(=O)O)nc3c2)c2ccccc21 (centres unmarked) [compound 707, 5-(7-((4,4-dimethyl-1,2,3,4-tetrahydronaphthalen-1-yl)carbamoyl)-3-phenylquinoxalin-2-yl)pentatioic acid] | 2.1 to 20
O=C(O)CCCCc1nc2cc(C(=O)N3C4C=C(c5ccccc5)CC3CC4)ccc2nc1-c1ccccc1 (centres unmarked) [compound 719, 5-(3-phenyl-7-(3-phenyl-8-azabicyclo[3.2.1]oct-2-ene-8-carbonyl)quinoxalin-2-yl)pentanoic acid] | 2.1 to 20
O=C(O)CCCCc1nc2cc(C(=O)N3CCC4(CC3)NC(=O)c3ccccc3O4)ccc2nc1-c1ccc(Cl)cc1 [compound 344, 5-(3-(4-chlorophenyl)-7-(4-oxo-3,4-dihydrospiro[benzo[e][1,3]oxazine-2,4′-piperidin]-1′-ylcarbonyl)quinoxalin-2-yl)pentanoic acid] | 2.1 to 20
Cc1ccccc1N1CCN(C(=O)c2ccc3nc(-c4ccc(F)cc4)c(CCCCC(=O)O)nc3c2)CC1 [compound 365, 5-(3-(4-fluorophenyl)-7-(4-(o-tolyl)piperazine-1-carbonyl)quinoxalin-2-yl)pentanoic acid] | 2.1 to 20
O=C(O)CCCCc1nc2cc(C(=O)NC3CC(=O)Nc4ccccc43)ccc2nc1-c1ccccc1 (centres unmarked) [compound 576, 5-(7-((2-oxo-1,2,3,4-tetrahydroquinolin-4-yl)carbamoyl)-3-phenylquinoxalin-2-yl)pentanoic acid] | 2.1 to 20
Cn1ccnc1C1CCCCN1C(=O)c1ccc2nc(-c3ccc(Cl)cc3)c(CCCCC(=O)O)nc2c1 (centres unmarked) [compound 651, 5-(3-(4-chlorophenyl)-7-(2-(1-methyl-1H-imidazol-2-yl)piperidine-1-carbonyl)quinoxalin-2-yl)pentanoic acid] | 20.1 to 200
O=C(O)C1CCC(Cc2nc3cc(C(=O)N4CC(c5cccc(F)c5)C4)ccc3nc2-c2ccc(Cl)cc2)C1 (centres unmarked) [compound 397, 3-((3-(4-chlorophenyl)-7-(3-(3-fluorophenyl)azetidine-1-carbonyl)quinoxalin-2-yl)methyl)cyclopentane-carboxylic acid] | 2.1 to 20

Now from value to molecule:

Ki [nM] | Compound
201 to 700 | O=C(O)CCCCc1nc2cc(C(=O)N3CCCCCC3c3cccnc3)ccc2nc1-c1ccc(Cl)cc1 (centres unmarked) [compound 653, 5-(3-(4-chlorophenyl)-7-(2-(pyridin-3-yl)azepane-1-carbonyl)quinoxalin-2-yl)pentanoic acid]
2.1 to 20 | C[C@H](NC(=O)c1ccc2nc(-c3ccc(Cl)cc3)c(CCCCC(=O)O)nc2c1)c1cncc2ccccc12 [compound 321, (S)-5-(3-(4-chlorophenyl)-7-((1-(isoquinolin-4-yl)ethyl)carbamoyl)quinoxalin-2-yl)pentanoic acid]
2.1 to 20 | C[C@H](NC(=O)c1ccc2nc(-c3ccc(Cl)cc3)c(CCCCC(=O)O)nc2c1)c1cccc2ncccc12 [compound 322, (S)-5-(3-(4-chlorophenyl)-7-((1-(quinolin-5-yl)ethyl)carbamoyl)quinoxalin-2-yl)pentanoic acid]
20.1 to 200 | C[C@@H](NC(=O)c1ccc2nc(-c3ccc(Cl)cc3)c(CCC(=O)O)nc2c1)c1ccc(F)cc1 [compound 418, (R)-3-(3-(4-chlorophenyl)-7-((1-(4-fluorophenyl)ethyl)carbamoyl)quinoxalin-2-yl) propanoic acid]
0.1 to 2 | C[C@@H](NC(=O)c1ccc2nc(-c3ccc(Cl)cc3)c(CCCCC(=O)O)nc2c1)c1cc(F)cc(F)c1 [compound 412, (R)-5-(3-(4-chlorophenyl)-7-((1-(3,5-difluorophenyl)ethyl)carbamoyl)quinoxalin-2-yl) pentanoic acid]
2.1 to 20 | COc1cccc(C2CN(C(=O)c3ccc4nc(-c5ccc(F)cc5)c(CCCCC(=O)O)nc4c3)C2)c1 [compound 373, 5-(3-(4-fluorophenyl)-7-(3-(3-methoxyphenyl)azetidine-1-carbonyl)quinoxalin-2-yl)pentanoic acid]
2.1 to 20 | O=C(O)CCCCc1nc2cc(C(=O)N[C@H]3c4ccccc4C[C@H]3O)ccc2nc1-c1ccc(F)cc1 [compound 508, 5-(3-(4-fluorophenyl)-7-(((1S,2R)-2-hydroxy-2,3-dihydro-1H-inden-1-yl)carbamoyl)quinoxalin-2-yl)pentanoic acid]
